Test results taken from patent US20210267996A1, “Compounds for inhibition of inflammation” (Children`s Medical Center Corporation, priority 2018, published 2021).
Entries after “also recorded” stand apart in the source; their conditions may differ.

What was measured:
mouse iBMDMs = assay: Processing of caspase-1, GSDMD and IL-1β in iBMDMs (immunoblot); type: cell-based; details: 1 hr time point
Method: (§1) FIG. 97 contains a bar graph showing results of an experiment where LPS-primed THP-1 cells, after medium removal, were incubated with probe FAM-YVAD-FMK in FLICA assay buffer for another 0.5 hr before fluorescence reading. iBMDMs were pretreated with disulfiram, Bay 11-7082, necrosulfonamide (NSA) or z-VAD-fmk for 1 hr before treated or not with Nigericin for 0.5 hr. Whole cell lysates and culture supernatants were immunoblotted with the indicated antibodies.
as §1, with “FIG. 98” for “FIG. 97”, “for 1” for “for 0.5”
Canonical inflammasome assembly activates caspase-1, which cleaves pro-IL-1β and GSDMD, and the latter is needed to release processed IL-1β and to induce pyroptosis. To assess which steps in NLRP3-mediated inflammation were inhibited post ASC speck formation, LPS-primed THP-1 cells were treated with vehicle, 30 μM z-VAD-fmk or disulfiram 1 hour before adding nigericin, and cleavage and activation of caspase-1, GSDMD, and pro-IL-1β were analysed by immunoblot of whole cell lysates 30 min later and 1 hr later. Secretion of processed IL-1β was also assessed by immunoblot of culture supernatants. […] The 1 hr time point is relevant as the cell death and IL-1β release measurements used cells stimulated with nigericin for 1 and 2 hrs, respectively.

[1] = tested on: caspase-1, GSDMD, and pro-IL-1β; assay: Caspase-1, GSDMD, pro-IL-1β cleavage and IL-1β secretion by immunoblot, THP-1; type: cell-based, human; details: 30 μM
Method: Immunoblot analysis: cell extracts were prepared using RIPA buffer (50 mM Tris-HCl pH 7.4, 150 mM NaCl, 1 mM EDTA, 1% Triton X-100, 0.1% SDS, 0.5% deoxycholate) supplemented with a complete protease inhibitor cocktail (Roche) and a PhosSTOP phosphatase inhibitor cocktail (Roche). Samples were subjected to SDS-PAGE and the resolved proteins were then transferred to a PVDF membrane (Millipore). Immunoblots were probed with indicated antibodies and visualized using a SuperSignal West Pico chemiluminescence ECL kit (Pierce).
To assess which steps in NLRP3-mediated inflammation were inhibited post ASC speck formation, LPS-primed THP-1 cells were treated with vehicle or 30 μM z-VAD-fmk, disulfiram or Bay 11-7082 1 hr before adding nigericin, and cleavage and activation of caspase-1, GSDMD, and pro-IL-1β were analysed by immunoblot of whole cell lysates 30 min later (FIG. 50). Secretion of processed IL-1β was also assessed by immunoblot of culture supernatants. […] Because immunoblots are not quantitative, caspase-1 activity 30 min after adding nigericin was also assessed using a fluorescent substrate in intact cells. […] Next, the effect of z-VAD-fmk, disulfiram and Bay 11-7082 on LPS+nigericin-induced GSDMD pore formation was assessed by immunofluorescence microscopy using a monoclonal antibody that was generated that recognizes both uncleaved GSDMD and its pore form (FIGS. 53, 54, and 64-66). In the absence of any inhibitor, the GSDMD antibody stained both the cytosol and the plasma membrane of LPS plus nigericin treated cells, which formed characteristic pyroptotic bubbles (See Reference 10). […] Thus, disulfiram and Bay 11-7082 inhibit multiple steps leading to canonical inflammasome-induced pyroptosis and inflammatory cytokine release, including priming, inflammasome assembly, inflammatory caspase activation, pro-inflammatory cytokine processing and GSDMD pore formation.
(§2) Cell death was determined by CytoTox96 assay. […] Cell death was determined by CytoTox96 assay. […] Shown are immunoblots of whole cell lysates harvested 0.5 hr later. […] Representative images of ASC specks (arrowheads) and mean±s.d. percent of cells with ASC specks analyzed 20 min later (FIG. 47). Whole cell lysates (WCL) and culture supernatants (Sup) were harvested 30 min after adding nigericin and immunoblotted with the indicated antibodies (FIG. 50). Caspase-1 activity was assayed 30 min after adding nigericin using a cell-permeable fluorescence dye FAM-YVAD-FMK (FIG. 52). […] Representative images of ASC specks (arrowheads) and mean±s.d. percent of cells with ASC specks analyzed 20 min later (FIGS. 48 and 49). Whole cell lysates (WCL) and culture supernatants (Sup), harvested 30 min after adding nigericin, were analyzed by immunoblot (FIG. 51). […] The Figures show representative confocal microscopy images and quantification of proportion of cells with GSDMD membrane staining and pyroptotic bubbles. Arrows indicate GSDMD staining of pyroptotic bubbles. […] FIGS. 57 and 58, dose response curve of the effect of Bay 11-7082 on caspase-1 (FIG. 57) and caspase-11 (FIG. 58) activity against a fluorescent peptide substrate. […] (FIG. 60). FIGS. 61 and 62 show dose response curve of the effect of Bay 11-7082 on liposome leakage induced by 0.3 μM human GSDMD-3C (FIG. 61) or mouse GSDMA3-3C (FIG. 62) plus 0.15 μM 3C protease. […] 2-fold dilutions of Bay 11-7082 from 5-40 μM were used. Graphs show the mean±s.d; data are representative of three independent experiments. *P<0.05, **P<0.01.
Canonical inflammasome assembly activates caspase-1, which cleaves pro-IL-1β and GSDMD, and the latter is needed to release processed IL-1β and to induce pyroptosis. […]

caspase-1 = assay: Caspase-1 activity assay in cells (FAM-YVAD-FMK); type: cell-based, human; details: 30 μM, 30 min after nigericin
Method: Caspase-1 activity assay in cells: to measure caspase-1 activation, THP-1 cells were seeded into 96-well plates and differentiated with PMA. After the indicated treatments, cells were incubated with a fluorescent active caspase-1 substrate FAM-YVAD-FMK (Immunochemistry Technologies). Samples were read on a BioTek Synergy 2 plate reader.
as §2

ASC specks = assay: ASC speck formation in LPS-primed THP-1 cells plus nigericin; type: cell-based, human; details: 30 μM, 1 hr before nigericin
Method: (§3) Immunostaining and confocal microscopy: cells grown on coverslips were fixed for 15 min with 4% paraformaldehyde in PBS, permeabilized for 5 min in 0.1% Triton X-100 in PBS and blocked using 5% BSA for 1 hr. Then, cells were stained with the indicated primary antibodies followed by incubation with fluorescent-conjugated secondary antibodies (Jackson ImmunoResearch). Nuclei were counterstained with DAPI (4,6-diamidino-2-phenylindole) (Sigma-Aldrich). Slides were mounted using Aqua-Poly/Mount (Dako). Images were captured using a laser scanning confocal microscope (Olympus Fluoview FV1000 Confocal System) with a 63× water immersion objective and Olympus Fluoview software (Olympus). All confocal images are representative of three independent experiments.
Nigericin activates the assembly of the NLRP3 canonical inflammasome using an adaptor called apoptosis-associated speck-like protein containing a caspase recruitment domain (ASC), which can be visualized in immunofluorescent microscopy as specks. When LPS-primed THP-1 cells were treated with nigericin in the absence of inhibitors, ASC specks were detected in 30% of cells (FIG. 36). As expected, speck formation was not inhibited by z-VAD-fmk, since caspase activation occurs downstream of inflammasome assembly.
as §2

GSDMD pore formation = assay: GSDMD membrane staining and pyroptotic bubbles, immunofluorescence; type: cell-based, human; details: 30 μM, 30 min after nigericin
Method: as §3
To assess which steps in NLRP3-mediated inflammation were inhibited post ASC speck formation, LPS-primed THP-1 cells were treated with vehicle or 30 μM z-VAD-fmk, disulfiram or Bay 11-7082 1 hr before adding nigericin, and cleavage and activation of caspase-1, GSDMD, and pro-IL-1β were analysed by immunoblot of whole cell lysates 30 min later (FIG. 50). Secretion of processed IL-1β was also assessed by immunoblot of culture supernatants. […] Because immunoblots are not quantitative, caspase-1 activity 30 min after adding nigericin was also assessed using a fluorescent substrate in intact cells. […] Next, the effect of z-VAD-fmk, disulfiram and Bay 11-7082 on LPS+nigericin-induced GSDMD pore formation was assessed by immunofluorescence microscopy using a monoclonal antibody that was generated that recognizes both uncleaved GSDMD and its pore form (FIGS. 53, 54, and 64-66). […]
Cell death was determined by CytoTox96 assay. […] Cell death was determined by CytoTox96 assay. […] Representative images of ASC specks (arrowheads) and mean±s.d. percent of cells with ASC specks analyzed 20 min later (FIG. 47). […] Caspase-1 activity was assayed 30 min after adding nigericin using a cell-permeable fluorescence dye FAM-YVAD-FMK (FIG. 52). […]

THP-1 cells = assay: Canonical inflammasome pyroptosis, LPS-primed THP-1 cells plus nigericin; type: cell-based, human; details: THP-1, nigericin
Method: Cell viability assay. […] Primed THP-1 cells were pretreated with each test compound for 1 hr before addition of 20 μM nigericin or medium as control. The number of surviving cells was determined by CellTiter-Glo assay 1.5 hrs later. The final percent cell viability was calculated using the formula [(luminescencetest compound−luminescencencenegative control)/(luminescencencepositive control−luminescencenegative control)]×100, where wells with only LPS were used as positive controls and wells treated with LPS and nigericin were used as negative controls.
Cells were verified to be free of mycoplasma contamination.
Cytotoxicity and cell viability assays: cell death and cell viability were determined by the lactate dehydrogenase release assay using the CytoTox 96 Non-Radioactive Cytotoxicity Assay kit (Promega) and by measuring ATP levels using the CellTiter-Glo Luminescent Cell Viability Assay (Promega), respectively, according to the manufacturer's instructions. Luminescence and absorbance were measured on a BioTek Synergy 2 plate reader.
In FIGS. 4, 6, and 8, PMA-differentiated LPS-primed human THP-1 were pre-treated with indicated concentrations of each compound for 1 h before adding nigericin or medium. The number of surviving cells was determined by CellTiter-Glo assay (FIGS. 4 and 6) and IL-1β in culture supernatants was assessed by ELISA (FIG. 8) 2 hrs later. […] In FIGS. 8 and 9, 40 μM concentration of test compounds were added. […] Graphs show the mean±s.d. and data shown are representative of three independent experiments. **P<0.01.

COC(=O)C[C@@H](C(=O)CF)N(C(=O)[C@@H](NC(=O)OCc1ccccc1)C(C)C)[C@@H](C)C(N)=O [z-VAD-fmk]
processing of caspase-1, GSDMD and IL-1β (mouse iBMDMs): still inhibited processing
processed IL-1β in culture supernatants [1]: only detected in the culture supernatants in the absence of any inhibitor; also recorded: only detected in culture supernatants in the absence of either inhibitor
caspase-1, GSDMD and pro-IL-1β cleavage ([1]; 30 min after nigericin): dramatically reduced; also recorded: processing was reduced
processing of caspase-1, GSDMD and pro-IL-1β ([1]; 60 min after nigericin): still showed little cleavage
caspase-1 activity in intact cells (caspase-1): completely inhibited
ASC speck formation (ASC specks): not inhibited
GSDMD membrane staining and pyroptotic bubbles (GSDMD pore formation): completely blocked
inhibition of canonical inflammasome pyroptosis (THP-1 cells): inhibits the canonical inflammasome pathway
